Like-named read-outs stand apart in the source and are kept apart here.
Columns and labels:
[1] = Phosphomolybdenum-based total antioxidant capacity (TAC)
Procedure: In the presence of an antioxidant, the phosphomolybdate ion gets reduced and a green phosphate–molybdate complex is formed, which is analyzed spectrophotometrically.
The total antioxidant capacity was determined by using the phosphomolybdenum-based method. The method is based on the reduction of Mo (VI) to Mo (V), leading to the formation of a green-colored phosphate–molybdenum complex that gives absorption at 630 nm. In 96-well plates, 20 µL of the sample was added with 180 µL TAC reagents in it and incubated at 95 °C for 90 min in a water bath and cooled at room temperature. The results were calculated as µg AAE/mg.

α-amylase enzyme = assay: α-Amylase enzyme inhibitory assay; format: biochemical; conditions: 200 µg/mL
Procedure: An in vitro α-amylase enzyme inhibitory assay was performed by the standard protocol. Four milligrams per 1 mL of sample was prepared in DMSO. In each well of a 96-well plate, synthetic compounds were added to a final concentration of 200 µg/mL. To this, 15 μL phosphate buffer, […] α-amylase enzyme and 40 μL starch solution were added stepwise. The microplate was incubated at 50 °C for 30 min. […] The formula used to calculate the percent enzyme inhibition is:% Enzyme inhibition = [(As − An) ÷ (Ab − An] × 100
As = sample’s absorbance; An = negative’s absorbance; Ab = blank’s absorbance

Hep-2C cells = assay: MTT assay against Hep-2C cells; format: cell-based, Human; conditions: Homo sapiens, Hep2C, read-out: IC50 (Mean ± SEM) Hep-2C Cells
Procedure, shortened: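 Human cervix carcinoma Hep-2C cells in DMEM with 10% FCS, seeded at 1 × 10^6 and exposed to test compounds for 24, 48 and 72 h. MTT (1 mg per mL) added for 4 h, formazan dissolved in DMSO, absorbance at 570 nm. Viability % versus untreated cells after blank subtraction.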

raw macrophages = assay: MTT cytotoxicity against raw macrophages; format: cell-based, albino rats; conditions: mean ± SEM, n = 3
Procedure, shortened: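 Peritoneal macrophages from albino rats were treated for 24 h at 37 °C, 5% CO2 with test compounds at 100, 50, 10 and 1 µM or vehicle, from DMSO stocks. MTT was then added for 2 h, formazan dissolved in DMSO and absorbance read at 570 nm. % viability = blank-corrected sample over blank-corrected control ×100.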

[2] = test system: carrageenan-induced paw edema; assay: Carrageenan-induced paw edema (in vivo anti-inflammatory activity); parameters: species or system BALB/C albino mice; unit not given beside the values; conditions: 10 mg/kg, mice, n = 5
Procedure: At 7–8 weeks old, male BALB/C albino mice (29–35 g), were purchased from The National Institute of Health (NIH), Islamabad, Pakistan. Five animals were housed per group and placed in a controlled temperature and humidity-controlled room (22 °C and 66 ± 5%, respectively) in a 12 h light–dark cycle and provided with water and food ad libitum. Ethical approval was taken from the bio-ethical committee of Quaid-I-Azam University (Approval No. BEC-FBS-QAU2018-119) and all protocols were conducted following the Ethical Guide to the Code of Practice for the Housing and Care of Animals Act 1986 (ARRIVE (Animal Research: Reporting In Vivo Experiments) guidelines). The anti-inflammatory activity of the synthesized compounds was evaluated by using the carrageenan-induced rat paw edema assay. To determine the dose response of tetrahydroquinoline derivatives, animals were first given a dose of 0.1, 1 and 10 mg/kg against 100 µL carrageenan (1% solution in normal saline)/paw. Treatment was given 60 min before carrageenan injection. Readings were taken at 4 h post carrageenan injection. The in vivo anti-inflammatory activity was performed following the procedure described by Koksal, et al. in 2017. Paw edema was induced by injecting 100 µL of 1% sterile carrageenan solution into the right hind paw of mice. Synthesized compounds (10 mg/kg), vehicle (saline with 2% DMSO) and drug (acetylsalicylic acid, ASA 10 mg/kg) were administered to the mice orally by gastric intubation 60 min before injecting carrageenan into the right hind paw. The decrease in edema was measured by vernier calipers every 2 h.

% inhibition of α-amylase enzyme (α-amylase enzyme) [%]	Structure (SMILES)	Total antioxidant capacity (TAC) [1] [µg/AAE]	IC50 (Hep-2C cells; 24 h) [µM]	IC50 (Hep-2C cells; 48 h) [µM]	IC50 (Hep-2C cells; 72 h) [µM]	IC50 (raw macrophages) [µM]	Paw thickness ([2]; 0 h after carrageenan injection)	Paw thickness ([2]; 2 h after carrageenan injection)	Paw thickness ([2]; 4 h after carrageenan injection)	Paw thickness ([2]; 6 h after carrageenan injection)
97.37	CN1CCN(CN2CCCc3ccccc32)CC1 [SF5]	285.46 ± 2.1	21.3 ± 1.09	18 ± 1.05	16.8 ± 1.07					
	c1ccc2c(c1)CCCN2CN1CCCCC1 [SF1, 1-(Piperidine-1-ylmethyl) 1,2,3,4-tetrahahydroquinoline]		28 ± 1.07	21.8 ± 1.1	14.8 ± 1.07	6.23 ± 0.01	2.06 ± 0.07	2.13 ± 0.03	2.18 ± 0.06	2.25 ± 0.05
88.67	c1ccc(N(CN2CCCc3ccccc32)c2ccccc2)cc1 [SF7, N-((3,4-dihydroquinolin-1(2H)-yl)methyl)-N-phenylaniline]	242.77 ± 2.31	26.7 ± 1.1	21.6 ± 1.05	16.8 ± 1.03					

From article PMC7321408, “One-Pot Multicomponent Synthesis and Bioevaluation of Tetrahydroquinoline Derivatives as Potential Antioxidants, α-Amylase Enzyme Inhibitors, Anti-Cancerous and Anti-Inflammatory Agents” (Molecules, 2020)
